This is an account of results in patent US9815832B2 (priority 2013, dated 2017).

This experiment has as its target human recombinant PDE4B (Homo sapiens (Human), UniProt Q07343, S133E/S654A/S659A/S661A). The conditions noted are these: read-out: Human PDE4B FL.

Chain of human recombinant PDE4B (Q07343 122-736 S133E/S654A/S659A/S661A): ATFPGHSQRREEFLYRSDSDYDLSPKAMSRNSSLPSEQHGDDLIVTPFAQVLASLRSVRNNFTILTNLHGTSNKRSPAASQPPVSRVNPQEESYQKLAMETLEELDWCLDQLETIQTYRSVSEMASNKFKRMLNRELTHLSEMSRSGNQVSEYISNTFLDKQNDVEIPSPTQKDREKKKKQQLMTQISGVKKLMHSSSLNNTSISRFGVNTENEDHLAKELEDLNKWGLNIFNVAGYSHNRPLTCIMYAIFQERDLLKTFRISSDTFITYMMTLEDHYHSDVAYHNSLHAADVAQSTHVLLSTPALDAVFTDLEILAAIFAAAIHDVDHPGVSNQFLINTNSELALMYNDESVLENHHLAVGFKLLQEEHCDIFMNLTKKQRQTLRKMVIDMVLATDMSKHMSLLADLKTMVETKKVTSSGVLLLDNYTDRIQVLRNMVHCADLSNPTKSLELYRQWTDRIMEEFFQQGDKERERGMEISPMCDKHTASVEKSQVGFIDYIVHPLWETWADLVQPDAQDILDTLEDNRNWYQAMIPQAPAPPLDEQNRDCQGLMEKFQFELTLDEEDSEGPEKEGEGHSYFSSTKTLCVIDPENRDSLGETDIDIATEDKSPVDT
Method: Reactions are incubated for 30 min at 25° C. The addition of 20 μL of 8 mg/mL yitrium silicate SPA beads (PerkinElmer) stops the reaction. The plates are sealed (TopSeal, PerkinElmer) and the beads are allowed to settle for 8 hrs, after which they are read on the Trilux Microbeta overnight.

As to `Cc1ccc(-n2c(C(=O)N3CC(F)C3)nc3cccnc32)cc1F` [Example 19, (3-Fluoroazetidin-1-yl)[3-(3-fluoro-4-methylphenyl)-3H-imidazo[4,5-b]pyridin-2-yl]methanone], the IC50 is 0.281 µM.
As to `Cc1cc(Cl)ccc1-n1c(C(=O)NC2CC2)nc2cccnc21` [Example 26, 3-(4-Chloro-2-methylphenyl)-N-cyclopropyl-3H-imidazo[4,5-b]pyridine-2-carboxamide], the IC50 came to 0.319 µM.
On to `O=C(NC1CC1)c1nc2cccnc2n1-c1ccc(C(F)(F)F)cc1` [Example 92, N-Cyclopropyl-3-[4-(trifluoromethyl)phenyl]-3H-imidazo[4,5-b]pyridine-2-carboxamide], for which the IC50 worked out at 3.11 µM.
For the compound `O=C(c1nc2cccnc2n1-c1ccc(Cl)cc1F)N1CC(F)C1` [Example 25, [3-(4-Chloro-2-fluorophenyl)-3H-imidazo[4,5-b]pyridin-2-yl](3-fluoroazetidin-1-yl)methanone], the IC50 is 0.91 µM.
As for `O=C(NC1CC1)c1nc2cccnc2n1-c1ccccc1` [Example 57, N-Cyclopropyl-3-phenyl-3H-imidazo[4,5-b]pyridine-2-carboxamide], the IC50 came to 1.16 µM.
The same measure for `O=C(c1nc2cccnc2n1-c1ccc(Cl)cc1F)N1CCC1` [Example 22, Azetidin-1-yl[3-(4-chloro-2-fluorophenyl)-3H-imidazo[4,5-b]pyridin-2-yl]methanone]: 0.273 µM; for `Cc1cc(-n2c(C(=O)NC3CC3)nc3cccnc32)c(Cl)cc1F` [Example 84, 3-(2-Chloro-4-fluoro-5-methylphenyl)-N-cyclopropyl-3H-imidazo[4,5-b]pyridine-2-carboxamide]: 16.6 µM; for `CN(C)C(=O)c1nc2cccnc2n1-c1ccc(Cl)c(F)c1` [Example 11, 3-(4-Chloro-3-fluorophenyl)-N,N-dimethyl-3H-imidazo[4,5-b]pyridine-2-carboxamide]: 0.405 µM.
The same measure for `N#Cc1ccc(-n2c(C(=O)NC3CC3)nc3cccnc32)cn1` [Example 39, 3-(6-Cyanopyridin-3-yl)-N-cyclopropyl-3H-imidazo[4,5-b]pyridine-2-carboxamide]: 0.363 µM; for `Cc1ccc(-n2c(C(=O)NC3CC3)nc3cccnc32)c(C)c1` [Example 59, N-Cyclopropyl-3-(2,4-dimethylphenyl)-3H-imidazo[4,5-b]pyridine-2-carboxamide]: 1.02 µM; for `Cn1ncc2ccc(-n3c(C(=O)NC4CC4)nc4cccnc43)cc21` [Example 86, N-Cyclopropyl-3-(1-methyl-1H-indazol-6-yl)-3H-imidazo[4,5-b]pyridine-2-carboxamide]: 24.5 µM.
For the compound `O=C(NC1CC1)c1nc2cccnc2n1C1Cc2ccccc2C1` [Example 47, N-Cyclopropyl-3-(2,3-dihydro-1H-inden-2-yl)-3H-imidazo[4,5-b]pyridine-2-carboxamide], the IC50 came to 1.26 µM.
Turning to `O=C(NC1CC1)c1nc2cccnc2n1-c1ccc(F)c(F)c1` [Example 62, N-Cyclopropyl-3-(3,4-difluorophenyl)-3H-imidazo[4,5-b]pyridine-2-carboxamide], the IC50 came to 0.0349 µM.
On to `Cc1ccc(F)cc1-n1c(C(=O)NC2CC2)nc2cccnc21` [Example 44, N-Cyclopropyl-3-(5-fluoro-2-methylphenyl)-3H-imidazo[4,5-b]pyridine-2-carboxamide], for which the IC50 was found to be 1.66 µM.
Consider `O=C(NC1CC1)c1nc2cccnc2n1-c1ccc2c(c1)CCC2` [Example 64, N-Cyclopropyl-3-(2,3-dihydro-1H-inden-5-yl)-3H-imidazo[4,5-b]pyridine-2-carboxamide], for which the IC50 worked out at 0.206 µM.
Consider `Cc1ccc(-n2c(C(=O)NC3CC3)nc3cccnc32)cn1` [Example 85, N-Cyclopropyl-3-(6-methylpyridin-3-yl)-3H-imidazo[4,5-b]pyridine-2-carboxamide], for which the IC50 worked out at 7.73 µM.
Turning to `CCNC(=O)c1nc2cccnc2n1-c1cncc(Cl)c1` [Example 81, 3-(5-Chloropyridin-3-yl)-N-ethyl-3H-imidazo[4,5-b]pyridine-2-carboxamide], the IC50 was 8.27 µM.
